# Assay results: PMC5370004, “Doxycycline directly targets PAR1 to suppress tumor progression” (Oncotarget, 2017)
# Target: T1, Protease-activated receptor 1 (PAR1) (Homo sapiens, UniProt P25116)
# T1 construct: gene F2R; PAR1 purified from 293-PAR1 cell lines
# T1 sequence (P25116 42-425): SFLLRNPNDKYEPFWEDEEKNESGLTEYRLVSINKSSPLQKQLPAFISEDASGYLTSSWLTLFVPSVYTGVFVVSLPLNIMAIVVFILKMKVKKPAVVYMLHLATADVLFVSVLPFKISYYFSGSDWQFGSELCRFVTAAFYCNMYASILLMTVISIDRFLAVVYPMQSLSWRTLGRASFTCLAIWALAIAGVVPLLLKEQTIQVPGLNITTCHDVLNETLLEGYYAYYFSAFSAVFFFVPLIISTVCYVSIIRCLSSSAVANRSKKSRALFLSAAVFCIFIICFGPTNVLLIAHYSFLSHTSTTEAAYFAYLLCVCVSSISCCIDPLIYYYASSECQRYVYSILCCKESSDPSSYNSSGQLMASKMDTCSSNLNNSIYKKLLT
# Assay: SPR (Biacore […], PAR1 immobilized on CM5 chip)
# Type: binding
smiles,measurement,value
C[C@H]1c2cccc(O)c2C(=O)C2=C(O)[C@]3(O)C(=O)C(C(N)=O)=C(O)[C@@H](N(C)C)[C@@H]3[C@@H](O)[C@@H]21 [Doxycycline],Kd,23 µM
